Reference: PubChem BioAssay AID1919008 (Molecular Pharmacology Branch, DTP, NCI, 2023)

System: DMS-114 complex spheroids with HUVEC/MSC, growth % test/control
Test: Anticancer human tumor DMS-114 cell line growth inhibition [AhR];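 also: spheroids exposed to agents for 7 days before readout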;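 as to viability, T/C: 100% = DMSO vehicle control wells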
Details: for IC50: curve of first compound; for viability, T/C: stronger effect = lower value
Procedure, shortened: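 Agents were dosed in half-log steps down from roughly clinical Cmax, or from 10 microM where Cmax was unknown, alone and with AhR antagonists. Read-out: percent test/control growth of tumor spheroids containing HUVEC and MSC stromal cells.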

[1] = second compound 0.1 µM, first compound 0.0316 µM
[2] = second compound 0.1 µM, first compound 0.1 µM
[3] = second compound 0.1 µM, first compound 0.316 µM
[4] = second compound 0.1 µM, first compound 1 µM
[5] = second compound 0.1 µM, first compound 3.16 µM
[6] = second compound 0.1 µM, first compound 10 µM
[7] = second compound 0.316 µM, first compound 0.0316 µM
[8] = second compound 0.316 µM, first compound 0.1 µM
[9] = second compound 0.316 µM, first compound 0.316 µM
[10] = second compound 0.316 µM, first compound 1 µM
[11] = second compound 0.316 µM, first compound 3.16 µM
[12] = second compound 0.316 µM, first compound 10 µM
[13] = second compound 1 µM, first compound 0.0316 µM
[14] = second compound 1 µM, first compound 0.1 µM
[15] = second compound 1 µM, first compound 0.316 µM
[16] = second compound 1 µM, first compound 1 µM
[17] = second compound 1 µM, first compound 3.16 µM
[18] = second compound 1 µM, first compound 10 µM
[19] = second compound 3.16 µM, first compound 0.0316 µM
[20] = second compound 3.16 µM, first compound 0.1 µM
[21] = second compound 3.16 µM, first compound 0.316 µM
[22] = second compound 3.16 µM, first compound 1 µM
[23] = second compound 3.16 µM, first compound 3.16 µM
[24] = second compound 3.16 µM, first compound 10 µM
[25] = second compound 10 µM, first compound 0.0316 µM
[26] = second compound 10 µM, first compound 0.1 µM
[27] = second compound 10 µM, first compound 0.316 µM
[28] = second compound 10 µM, first compound 1 µM
[29] = second compound 10 µM, first compound 3.16 µM
[30] = second compound 10 µM, first compound 10 µM

COc1cc(C2c3cc4c(cc3C(OC3OC5COC(C)OC5C(O)C3O)C3COC(=O)C23)OCO4)cc(OC)c1O (stereo not given) + Cc1cncc(-c2nc(NCCc3c[nH]c4ccccc34)c3ncn(C(C)C)c3n2)c1
IC50 (second compound 0.1 µM): 448 nM
IC50 (second compound 0.316 µM): 351 nM
IC50 (second compound 1 µM): 390 nM
IC50 (second compound 3.16 µM): 298 nM
IC50 (second compound 10 µM): < 31.6 nM
viability, T/C [1]: 102%
viability, T/C [2]: 97.8%
viability, T/C [3]: 58.1%
viability, T/C [4]: 27%
viability, T/C [5]: 16.5%
viability, T/C [6]: 8.1%
viability, T/C [7]: 96.4%
viability, T/C [8]: 96.3%
viability, T/C [9]: 50.4%
viability, T/C [10]: 24.9%
viability, T/C [11]: 16.3%
viability, T/C [12]: 9.46%
viability, T/C [13]: 92.7%
viability, T/C [14]: 94.6%
viability, T/C [15]: 54.6%
viability, T/C [16]: 23.5%
viability, T/C [17]: 17.6%
viability, T/C [18]: 9.48%
viability, T/C [19]: 87.1%
viability, T/C [20]: 93.3%
viability, T/C [21]: 47.5%
viability, T/C [22]: 21.9%
viability, T/C [23]: 15.7%
viability, T/C [24]: 8.67%
viability, T/C [25]: 42.3%
viability, T/C [26]: 41.6%
viability, T/C [27]: 21.7%
viability, T/C [28]: 10.2%
viability, T/C [29]: 8.09%
viability, T/C [30]: 5.18%

Nc1ncn(C2CC(O)C(CO)S2)c(=O)n1 (stereo not given) + CC(CO)NC(=O)c1cc(-c2ccc(Cl)cc2)nn(-c2cnn(C)c2)c1=O
IC50 (second compound 0.1 µM): > 300 nM
IC50 (second compound 0.316 µM): > 300 nM
IC50 (second compound 1 µM): > 300 nM
IC50 (second compound 3.16 µM): > 300 nM
IC50 (second compound 10 µM): > 300 nM
viability, T/C (second compound 0.1 µM, first compound 0.000949 µM): 117%
viability, T/C (second compound 0.1 µM, first compound 0.003 µM): 101%
viability, T/C (second compound 0.1 µM, first compound 0.00949 µM): 108%
viability, T/C (second compound 0.1 µM, first compound 0.03 µM): 115%
viability, T/C (second compound 0.1 µM, first compound 0.0949 µM): 85.3%
viability, T/C (second compound 0.1 µM, first compound 0.3 µM): 59.5%
viability, T/C (second compound 0.316 µM, first compound 0.000949 µM): 111%
viability, T/C (second compound 0.316 µM, first compound 0.003 µM): 113%
viability, T/C (second compound 0.316 µM, first compound 0.00949 µM): 92.7%
viability, T/C (second compound 0.316 µM, first compound 0.03 µM): 89.5%
viability, T/C (second compound 0.316 µM, first compound 0.0949 µM): 79.9%
viability, T/C (second compound 0.316 µM, first compound 0.3 µM): 58.3%
viability, T/C (second compound 1 µM, first compound 0.000949 µM): 107%
viability, T/C (second compound 1 µM, first compound 0.003 µM): 107%
viability, T/C (second compound 1 µM, first compound 0.00949 µM): 96.9%
viability, T/C (second compound 1 µM, first compound 0.03 µM): 102%
viability, T/C (second compound 1 µM, first compound 0.0949 µM): 80%
viability, T/C (second compound 1 µM, first compound 0.3 µM): 55.7%
viability, T/C (second compound 3.16 µM, first compound 0.000949 µM): 112%
viability, T/C (second compound 3.16 µM, first compound 0.003 µM): 107%
viability, T/C (second compound 3.16 µM, first compound 0.00949 µM): 115%
viability, T/C (second compound 3.16 µM, first compound 0.03 µM): 118%
viability, T/C (second compound 3.16 µM, first compound 0.0949 µM): 66.2%
viability, T/C (second compound 3.16 µM, first compound 0.3 µM): 51.9%
viability, T/C (second compound 10 µM, first compound 0.000949 µM): 126%
viability, T/C (second compound 10 µM, first compound 0.003 µM): 108%
viability, T/C (second compound 10 µM, first compound 0.00949 µM): 108%
viability, T/C (second compound 10 µM, first compound 0.03 µM): 103%
viability, T/C (second compound 10 µM, first compound 0.0949 µM): 87.8%
viability, T/C (second compound 10 µM, first compound 0.3 µM): 58%

Nc1ccccc1NC(=O)c1ccc(CNC(=O)OCc2cccnc2)cc1 + Cc1ccccc1N=Nc1ccc(NC(=O)c2ccnn2C)c(C)c1
IC50 (second compound 0.1 µM): 2220 nM
IC50 (second compound 0.316 µM): 2410 nM
IC50 (second compound 1 µM): 2340 nM
IC50 (second compound 3.16 µM): 2460 nM
IC50 (second compound 10 µM): 2410 nM
viability, T/C [1]: 91.5%
viability, T/C [2]: 102%
viability, T/C [3]: 91.5%
viability, T/C [4]: 72.9%
viability, T/C [5]: 40.1%
viability, T/C [6]: 23.3%
viability, T/C [7]: 95.7%
viability, T/C [8]: 102%
viability, T/C [9]: 94.8%
viability, T/C [10]: 72.5%
viability, T/C [11]: 43.7%
viability, T/C [12]: 23.1%
viability, T/C [13]: 91.8%
viability, T/C [14]: 95.9%
viability, T/C [15]: 90%
viability, T/C [16]: 73.4%
viability, T/C [17]: 41.8%
viability, T/C [18]: 25.1%
viability, T/C [19]: 98.6%
viability, T/C [20]: 88.7%
viability, T/C [21]: 84.5%
viability, T/C [22]: 68.8%
viability, T/C [23]: 43.9%
viability, T/C [24]: 23.5%
viability, T/C [25]: 91.6%
viability, T/C [26]: 87.3%
viability, T/C [27]: 85.5%
viability, T/C [28]: 72.8%
viability, T/C [29]: 42.9%
viability, T/C [30]: 26.1%
